This note sets out measurements from patent US20220175738A1, “Tip60 Inhibitors and Methods of Use for Cardiovascular Disease” (The Medical College of Wisconsin, Inc., priority 2019, published 2022).

The subject of this experiment is wild-type rat neonatal CMs. Description: Neonatal CM cell culture model: proliferation and apoptosis (planned). In kind it is cell-based. The following applies: low concentrations 0.1-3 μM, 24 hours; expected. From the text:
The cells will then be assessed for cell proliferation by direct cell counting and [3H]-thymidine incorporation as well as by immunostaining for Ki67, BrdU and pH3. Apoptosis will also be evaluated, by TUNEL labeling and by staining of caspase-3. All results will be confirmed using a minimum of three independent determinations, and statistical evaluation will be performed using ANOVA or a Student's t-test, as appropriate.

In the case of `c1cc(SSc2ccns2)sn1` [NU9056], the “CM proliferation (cell counting, [3H]-thymidine, Ki67, BrdU, pH3)” value was “promote CM proliferation”.
